Data: publication PMC11509018, “Evaluation of the Role of Tanshinone I in an In Vitro System of Charcot-Marie-Tooth Disease Type 2N” (International Journal of Molecular Sciences, 2024)
Entries after “also recorded” stand apart in the source; their conditions may differ.

Molecular target: T1, AlaRS^R329H (Homo sapiens, UniProt P49588, R329H)
T1 construct: made in house; host or cells: E. coli BL21 (DE3), pET-21a
T1 sequence (P49588 1-968 R329H): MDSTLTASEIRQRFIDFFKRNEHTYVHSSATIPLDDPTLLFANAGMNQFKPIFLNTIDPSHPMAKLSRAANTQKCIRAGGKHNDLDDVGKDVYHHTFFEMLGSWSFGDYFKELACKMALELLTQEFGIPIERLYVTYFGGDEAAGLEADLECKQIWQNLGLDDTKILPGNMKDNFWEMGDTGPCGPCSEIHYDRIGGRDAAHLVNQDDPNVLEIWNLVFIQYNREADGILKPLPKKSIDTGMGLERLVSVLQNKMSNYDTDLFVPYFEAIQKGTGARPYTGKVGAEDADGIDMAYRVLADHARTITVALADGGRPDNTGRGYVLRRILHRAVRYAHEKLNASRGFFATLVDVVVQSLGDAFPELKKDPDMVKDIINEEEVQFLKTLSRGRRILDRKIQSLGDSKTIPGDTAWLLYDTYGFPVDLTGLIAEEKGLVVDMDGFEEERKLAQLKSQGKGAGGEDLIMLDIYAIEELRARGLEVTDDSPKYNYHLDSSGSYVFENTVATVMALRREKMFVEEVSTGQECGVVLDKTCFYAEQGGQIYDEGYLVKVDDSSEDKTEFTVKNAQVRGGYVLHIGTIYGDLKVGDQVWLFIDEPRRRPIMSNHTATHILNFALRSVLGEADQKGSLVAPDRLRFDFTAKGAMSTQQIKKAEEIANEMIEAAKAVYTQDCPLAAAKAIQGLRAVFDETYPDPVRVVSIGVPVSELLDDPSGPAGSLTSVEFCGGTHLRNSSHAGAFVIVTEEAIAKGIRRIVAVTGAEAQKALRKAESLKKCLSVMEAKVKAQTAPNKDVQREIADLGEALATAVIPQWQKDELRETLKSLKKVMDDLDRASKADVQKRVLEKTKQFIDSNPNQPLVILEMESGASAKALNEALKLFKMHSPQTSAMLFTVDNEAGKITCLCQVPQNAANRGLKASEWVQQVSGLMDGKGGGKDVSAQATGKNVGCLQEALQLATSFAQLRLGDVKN
Experiment: Proteolytic digestion assay (trypsin, SDS-PAGE)
Conditions: 3 h
Protocol: To delve deeper into the impact of selected small molecules on the structural conformation of AlaRS^R329H proteins, a series of proteolysis experiments were conducted. The small molecules were incubated with AlaRS^R329H proteins at room temperature for three hours, followed by SDS-PAGE analysis to evaluate their effects on the distribution of the digestion fragments. […] The AlaRS^R329H proteins (in the presence and absence of Atazanavir sulfate, Tanshinone I, Hederacolchiside A1, and Hexylresorcinol) were incubated with trypsin at different concentrations for 3 h before the reactions were quenched, and the products were separated by SDS-PAGE.

## Cc1coc2c1C(=O)C(=O)c1c-2ccc2c(C)cccc12 [Tanshinone I]
  Effect on distribution of digestion fragments / conformation: markedly altered the digestion fragment pattern; also recorded: significant change in the distribution of the bands
